Measurements from US20030078251A1, “Benzoxazepinones and their use as squalene synthase inhibitors” (priority 2000, published 2003).

Compound | melting point [°C]
COc1cccc([C@H]2O[C@H](CC(=O)Nc3ncc(CC(=O)O)s3)C(=O)N(CC(C)(C)CO)c3ccc(Cl)cc32)c1OC [Example 143, [2-[[[(3R,5S)-7-Chloro-5-(2,3-dimethoxyphenyl)-1-(3-hydroxy-2,2-dimethylpropyl)-2-oxo-1,2,3,5-tetrahydro-4,1-benzoxazepin-3-yl]acetyl]amino]-1,3-thiazol-5-yl]acetic acid] | 239 to 241
COc1cccc([C@H]2O[C@H](CC(=O)Nc3nc(C)c(C(=O)O)s3)C(=O)N(CC(C)(C)CO)c3ccc(Cl)cc32)c1OC [Example 145, 2-[[[(3R,5S)-7-Chloro-5-(2,3-dimethoxyphenyl)-1-(3-hydroxy-2,2-dimethylpropyl)-2-oxo-1,2,3,5-tetrahydro-4,1-benzoxazepin-3-yl]acetyl]amino]-4-methyl-1,3-thiazole-5-carboxylic acid] | 251 to 252
COc1cccc([C@H]2O[C@H](CC(=O)Nc3cc(OC)c4oc(C(=O)O)cc4c3)C(=O)N(CC(C)(C)CO)c3ccc(Cl)cc32)c1OC [Example 149, 5-[[[(3R,5S)-5-(2,3-dimethoxyphenyl)-7-chloro-1-(3-hydroxy-2,2-dimethylpropyl)-2-oxo-1,2,3,5-tetrahydro-4,1-benzoxazepin-3-yl]acetyl]amino]-7-methoxy-1-benzofran-2-carboxylic acid] | 175.4 to 175.5
CCOc1cc(NC(=O)C[C@H]2O[C@H](c3cccc(OC)c3OC)c3cc(Cl)ccc3N(CC(C)(C)CO)C2=O)cc2cc(C(=O)O)oc12 [Example 150, 5-[[[(3R,5S)-7-chloro-5-(2,3-dimethoxyphenyl)-1-(3-hydroxy-2,2-dimethylpropyl)-2-oxo-1,2,3,5-tetrahydro-4,1-benzoxazepin-3-yl]acetyl]amino]-7-ethoxy-1-benzofuran-2-carboxylic acid] | 181 to 181.5
COc1cccc([C@H]2O[C@H](CC(=O)Nc3ccc4oc(C(=O)O)c(OC(C)C)c4c3)C(=O)N(CC(C)(C)CO)c3ccc(Cl)cc32)c1OC [Example 156, 5-[[[(3R,5S)-7-chloro-5-(2,3-dimethoxyphenyl)-1-(3-hydroxy-2,2-dimethylpropyl)-2-oxo-1,2,3,5-tetrahydro-4,1-benzoxazepin-3-yl]acetyl]amino]-3-[(1-methylethyl)oxy]-1-benzofuran-2-carboxylic acid] | 174.2 to 174.9
COc1cccc([C@H]2O[C@H](CC(=O)Nc3ccc4[nH]c(C(=O)O)cc4c3)C(=O)N(CC(C)(C)CO)c3ccc(Cl)cc32)c1OC [Example 157] | 200.5 to 200.6
COc1cccc([C@H]2O[C@H](CC(=O)Nc3ccc4oc(C(=O)O)c(C)c4c3)C(=O)N(CC(C)(C)CO)c3ccc(Cl)cc32)c1OC [Example 160, 5-[[[(3R,5S)-7-Chloro-5-(2,3-dimethoxyphenyl)-1-(3-hydroxy-2,2-dimethylpropyl)-2-oxo-1,2,3,5-tetrahydro-4,1-benzoxazepin-3-yl]acetyl]amino]-3-methyl-1-benzofuran-2-carboxylic acid] | 175 to 176.5
CCc1cc(NC(=O)C[C@H]2O[C@H](c3cccc(OC)c3OC)c3cc(Cl)ccc3N(CC(C)(C)CO)C2=O)cc2cc(C(=O)O)oc12 [Example 162, 5-[[2-[(3R,5S)-7-Chloro-5-(2,3-dimethoxyphenyl)-1-(3-hydroxy-2,2-dimethylpropyl)-2-oxo-1,2,3,5-tetrahydro-4,1-benzoxazepin-3-yl]acetyl]amino]-7-ethyl-1-benzofuran-2-carboxylic acid] | 188 to 189
CCCc1cc(NC(=O)C[C@H]2O[C@H](c3cccc(OC)c3OC)c3cc(Cl)ccc3N(CC(C)(C)CO)C2=O)cc2cc(C(=O)O)oc12 [Example 163, 5-[[[(3R,5S)-7-Chloro-5-(2,3-dimethoxyphenyl)-1-(3-hydroxy-2,2-dimethylpropyl)-2-oxo-1,2,3,5-tetrahydro-4,1-benzoxazepin-3-yl]acetyl]amino]-7-propyl-1-benzofuran-2-carboxylic acid] | 198.5 to 199.5
COc1cccc([C@H]2O[C@H](CC(=O)Nc3cc(Cl)cc4cc(C(=O)O)oc34)C(=O)N(CC(C)(C)CO)c3ccc(Cl)cc32)c1OC [Example 165, 7-[[[(3R,5S)-7-Chloro-5-(2,3-dimethoxyphenyl)-1-(3-hydroxy-2,2-dimethylpropyl)-2-oxo-1,2,3,5-tetrahydro-5,1-benzoxazepin-3-yl]acetyl]amino]-5-chloro-1-benzofuran-2-carboxylic acid] | 179.2 to 180.2

More lines, now with the values ahead:

melting point [°C] | Compound
277.3 to 277.9 | COc1cccc([C@H]2O[C@H](CC(=O)Nc3nc(C(=O)O)cs3)C(=O)N(CC(C)(C)CO)c3ccc(Cl)cc32)c1OC [Example 142, 2-[[[(3R,5S)-7-Chloro-5-(2,3-dimethoxyphenyl)-1-(3-hydroxy-2,2-dimethylpropyl)-2-oxo-1,2,3,5-tetrahydro-4,1-benzoxazepin-3-yl]acetyl]amino]-1,3-thiazole-4-carboxylic acid]
203 to 205 | COc1cccc([C@H]2O[C@H](CC(=O)Nc3ncc(CCC(=O)O)s3)C(=O)N(CC(C)(C)CO)c3ccc(Cl)cc32)c1OC [Example 144, 3-[2-[[[(3R,5S)-7-Chloro-5-(2,3-dimethoxyphenyl)-1-(3-hydroxy-2,2-dimethylpropyl)-2-oxo-1,2,3,5-tetrahydro-4,1-benzoxazepin-3-yl]acetyl]amino]-1,3-thiazol-5-yl]propionic Acid]
187.9 to 188.9 | COc1cccc([C@H]2O[C@H](CC(=O)Nc3ccc4[nH]c(SCC(=O)O)nc4c3)C(=O)N(CC(C)(C)CO)c3ccc(Cl)cc32)c1OC [Example 148, 2-[[5-[[[(3R,5S)-7-Chloro-5-(2,3-dimethoxyphenyl)-1-(3-hydroxy-2,2-dimethylpropyl)-2-oxo-1,2,3,5-tetrahydro-4,1-benzoxazepin-3-yl]acetyl]amino]-1H-benzimidazol-2-yl]sulfanyl]acetic acid]
188.6 to 189.7 | COc1cccc([C@H]2O[C@H](CC(=O)Nc3cc(OC(C)C)c4oc(C(=O)O)cc4c3)C(=O)N(CC(C)(C)CO)c3ccc(Cl)cc32)c1OC [Example 152, 5-[[[(3R,5S)-7-Chloro-5-(2,3-dimethoxyphenyl)-1-(3-hydroxy-2,2-dimethylpropyl)-2-oxo-1,2,3,5-tetrahydro-4,1-benzoxazepin-3-yl]acetyl]amino]-7-[(1-methylethyl)oxy]-1-benzofuran-2-carboxylic acid]
175.4 to 176.3 | COc1cccc([C@H]2O[C@H](CC(=O)Nc3ccc4oc(C(=O)O)c(OC)c4c3)C(=O)N(CC(C)(C)CO)c3ccc(Cl)cc32)c1OC [Example 153, 5-[[[(3R,5S)-7-chloro-5-(2,3-dimethoxyphenyl)-7-chloro-1-(3-hydroxy-2,2-dimethylpropyl)-2-oxo-1,2,3,5-tetrahydro-4,1-benzoxazepin-3-yl]acetyl]amino]-3-methoxy-1-benzofuran-2-carboxylic acid]
193 to 195.5 | COc1cccc([C@H]2O[C@H](CC(=O)Nc3ccc4oc(C(=O)O)c(OCC(=O)O)c4c3)C(=O)N(CC(C)(C)CO)c3ccc(Cl)cc32)c1OC [Example 155, 5-[[[(3R,5S)-7-chloro-5-(2,3-dimethoxyphenyl)-1-(3-hydroxy-2,2-dimethylpropyl)-2-oxo-1,2,3,5-tetrahydro-4,1-benzoxazepin-3-yl]acetyl]amino]-3-[(carboxymethyl)oxy]-1-benzofuran-2-carboxylic acid]
207 to 209 | COc1cccc([C@H]2O[C@H](CC(=O)Nc3ccc4oc(CCC(=O)O)cc4c3)C(=O)N(CC(C)(C)CO)c3ccc(Cl)cc32)c1OC [Example 159, 3-[5-[[[(3R,5S)-7-Chloro-5-(2,3-dimethoxyphenyl)-1-(3-hydroxy-2,2-dimethylpropyl)-2-oxo-1,2,3,5-tetrahydro-4,1-benzoxazepin-3-yl]acetyl]amino]-1-benzofuran-2-yl]propanoic acid]
180.7 to 182 | COc1cccc([C@H]2O[C@H](CC(=O)Nc3cc(C)c4oc(C(=O)O)cc4c3)C(=O)N(CC(C)(C)CO)c3ccc(Cl)cc32)c1OC [Example 161, 5-[[[(3R,5S)-7-Chloro-5-(2,3-dimethoxyphenyl)-1-(3-hydroxy-2,2-dimethylpropyl)-2-oxo-1,2,3,5-tetrahydro-4,1-benzoxazepin-3-yl]acetyl]amino]-7-methyl-1-benzofuran-2-carboxylic acid]
246 to 248 | COc1cccc([C@H]2O[C@H](CC(=O)Nc3c(C)c(C)c4oc(C(=O)O)cc4c3C)C(=O)N(CC(C)(C)CO)c3ccc(Cl)cc32)c1OC [Example 164, 5-[[[(3R,5S)-7-Chloro-5-(2,3-dimethoxyphenyl)-1-(3-hydroxy-2,2-dimethylpropyl)-2-oxo-1,2,3,5-tetrahydro-4,1-benzoxazepin-3-yl]acetyl]amino]-4,6,7-trimethyl-1-benzofuran-2-carboxylic acid]
